The record followed here is patent US20230285377A1, “KCNT1 INHIBITORS AND METHODS OF USE” (Praxis Precision Medicines, Inc., priority 2020, published 2023).

Some results are limits rather than exact numbers.

A word on the IC50: it is the concentration needed to halve the response being measured.

Chain of KCNT1 (KNa1.1, Slack) (Q5JUK3 whole entry): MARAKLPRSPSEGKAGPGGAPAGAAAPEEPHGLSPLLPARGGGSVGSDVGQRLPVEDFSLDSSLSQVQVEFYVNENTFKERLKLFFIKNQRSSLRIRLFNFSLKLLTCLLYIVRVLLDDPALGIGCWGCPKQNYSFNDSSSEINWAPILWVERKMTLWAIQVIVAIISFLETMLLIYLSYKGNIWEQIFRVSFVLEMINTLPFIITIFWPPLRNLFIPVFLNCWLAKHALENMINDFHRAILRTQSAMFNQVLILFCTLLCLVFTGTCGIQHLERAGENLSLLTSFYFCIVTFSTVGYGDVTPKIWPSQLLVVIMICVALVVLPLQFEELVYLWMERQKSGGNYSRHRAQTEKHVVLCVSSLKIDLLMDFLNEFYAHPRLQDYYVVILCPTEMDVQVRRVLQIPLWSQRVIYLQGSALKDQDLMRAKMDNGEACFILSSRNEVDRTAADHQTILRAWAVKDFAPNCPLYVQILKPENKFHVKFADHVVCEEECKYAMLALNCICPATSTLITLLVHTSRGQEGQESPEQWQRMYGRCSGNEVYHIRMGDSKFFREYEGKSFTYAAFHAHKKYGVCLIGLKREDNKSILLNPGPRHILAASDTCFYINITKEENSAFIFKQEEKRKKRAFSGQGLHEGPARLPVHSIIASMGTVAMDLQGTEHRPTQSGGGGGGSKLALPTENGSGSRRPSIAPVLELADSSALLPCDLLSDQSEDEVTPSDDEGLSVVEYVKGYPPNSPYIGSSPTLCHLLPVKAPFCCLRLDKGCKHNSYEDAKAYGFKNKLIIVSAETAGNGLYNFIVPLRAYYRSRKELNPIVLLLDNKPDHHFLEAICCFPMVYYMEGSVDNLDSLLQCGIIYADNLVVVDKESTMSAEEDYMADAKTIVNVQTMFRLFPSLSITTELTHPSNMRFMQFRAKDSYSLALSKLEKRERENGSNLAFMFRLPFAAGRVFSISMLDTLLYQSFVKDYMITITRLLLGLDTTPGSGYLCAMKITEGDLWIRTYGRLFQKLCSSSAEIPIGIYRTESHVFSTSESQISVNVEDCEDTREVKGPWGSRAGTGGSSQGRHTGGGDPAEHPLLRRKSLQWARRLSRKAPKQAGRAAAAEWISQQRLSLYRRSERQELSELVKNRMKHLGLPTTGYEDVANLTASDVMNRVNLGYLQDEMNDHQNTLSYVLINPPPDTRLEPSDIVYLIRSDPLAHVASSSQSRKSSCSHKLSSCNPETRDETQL

In the assay the target is KCNT1 (KNa1.1, Slack) (Homo sapiens (Human), UniProt Q5JUK3). Kind of assay: KCNT1-WT-Basal - Patch Clamp Assay. Conditions: tetracycline inducible HEK-TREX cell line; SyncroPatch 384PE automated patch clamp; step to 0 mV; room temperature. The assay is classed as cell-based. The protocol:
Inhibition of KCNT1 (KNa1.1, Slack) was evaluated using a tetracycline inducible cell line (HEK-TREX). Currents were recorded using the SyncroPatch 384PE automated, patch clamp system. Pulse generation and data collection were performed with PatchController384 V1.3.0 and DataController384 V1.2.1 (Nanion Technologies). The access resistance and apparent membrane capacitance were estimated using built-in protocols. Current were recorded in perforated patch mode (10 µM escin) from a population of cells. The cells were lifted, triturated, and resuspended at 800,000 cells/ml. The cells were allowed to recover in the cell hotel prior to experimentation. Currents were recorded at room temperature. The external solution contained the following (in mM): NaCl 105, NMDG 40, KC1 4, MgC12 1, CaC12 5 and HEPES 10 (pH = 7.4, Osmolarity ~300 mOsm). The extracellular solution was used as the wash, reference and compound delivery solution. The internal solution contained the following (in mM): NaCl 70, KF 70, KC1 10, EGTA 5, HEPES 5 and Escin 0.01 (pH = 7.2, Osmolarity ~295 mOsm). Escin is made at a 5 mM stock in water, aliquoted, and stored at -20° C. The compound plate was created at 2x concentrated in the extracellular solution. The compound was diluted to 1:2 when added to the recording well. The amount of DMSO in the extracellular solution was held constant at the level used for the highest tested concentration. A holding potential of -80 mV with a 100 ms step to 0 mV was used. Mean current was measured during the step to 0 mV. […] The average mean current from 3 sweeps was calculated and the % inhibition of each compound was calculated. The % Inhibition as a function of the compound concentration was fit with a Hill equation to derive IC50, slope, min and max parameters. If KCNT1 inhibition was less than 50% at the highest tested concentration or if an IC50 could not be calculated, then a percent inhibition was reported in place of the IC50.
In this table, “A” indicates IC50 of less than or equal to 1 µM; “B” indicates inhibition of between 1 µM to 20 µM; and “C” indicates inhibition of greater than or equal to 20 µM.
For orientation: Patch clamp records ionic current or voltage across a cell membrane.
Regarding `C[C@H](NC(=O)c1cccc(Cl)c1)c1nc(-c2ccnc(C3CC3)c2)ns1` (single isomer, unassigned) [Example 6], the half-inhibitory concentration (IC50) was not above 1000 nM.
Regarding `C[C@@H](NC(=O)c1ccccc1)c1cc(-c2ccnc(C(F)(F)F)c2)no1` (single isomer, unassigned) [Example 22], the half-maximal inhibitory concentration (IC50) was not below 20000 nM.
`C[C@H](NC(=O)c1cc(C(F)(F)F)nn1C)c1cc(-c2ccnc(C(F)(F)F)c2)no1` (single isomer, unassigned) [Example 2] registered an IC50 not above 1000 nM.
Consider `C[C@@H](NC(=O)c1cc(C(F)(F)F)nn1C)c1cc(-c2ccnc(C(F)(F)F)c2)no1` (single isomer, unassigned) [Example 3], for which the IC50 was 1000 to 20000 nM.
Compound `C[C@@H](NC(=O)C1CCCCC1)c1cc(-c2ccnc(C(F)(F)F)c2)no1` (single isomer, unassigned) [Example 26] registered a half-maximal inhibitory concentration (IC50) not below 20000 nM.
On to `C[C@@H](NC(=O)c1cc(C(F)(F)F)nn1C)c1nc(-c2ccnc(C3CC3)c2)ns1` (single isomer, unassigned) [Example 13], for which the concentration for half-maximal inhibition (IC50) is not above 1000 nM.
In the case of `C[C@@H](NC(=O)N1CCCCC1)c1cc(-c2ccnc(C(F)(F)F)c2)no1` (single isomer, unassigned) [Example 9], the IC50 fell in the range of 1000 to 20000 nM.
Then `C[C@H](NC(=O)c1cccc(Cl)c1)c1cc(-c2ccnc(C(F)(F)F)c2)no1` (single isomer, unassigned) [Example 21], with not above 1000 nM; and `C[C@@H](NC(=O)c1cc(C(F)F)nn1C)c1cc(-c2ccnc(C(F)(F)F)c2)no1` (single isomer, unassigned) [Example 30], with 1000 to 20000 nM; and `C[C@@H](NC(=O)c1cccc(Cl)c1)c1nc(-c2ccnc(C3CC3)c2)ns1` (single isomer, unassigned) [Example 7], with not above 1000 nM.
Regarding `C[C@@H](NC(=O)N1CCCc2ccccc21)c1cc(-c2ccnc(C(F)(F)F)c2)no1` (single isomer, unassigned) [Example 35], the concentration for half-maximal inhibition (IC50) was not above 1000 nM.
Take `C[C@H](NC(=O)c1ccnn1C1CCC1)c1cc(-c2ccnc(C(F)(F)F)c2)no1` (single isomer, unassigned) [Example 37]: the IC50 was in the range of 1000 to 20000 nM.
For `C[C@H](NC(=O)N1CCOc2ccccc21)c1cc(-c2ccnc(C(F)(F)F)c2)no1` (single isomer, unassigned) [Example 38] the value was 1000 to 20000 nM; for `Cc1cc(-c2nsc([C@@H](C)NC(=O)c3cc(C(F)(F)F)nn3C)n2)ccn1` [Example 41, (R)-1-methyl-N-(1-(3-(2-methylpyridin-4-yl)-1,2,4-thiadiazol-5-yl)ethyl)-3-(trifluoromethyl)-1H-pyrazole-5-carboxamide], 1000 to 20000 nM; for `COCc1cc(-c2nsc([C@H](C)NC(=O)c3cc(C(F)(F)F)nn3C)n2)ccn1` (single isomer, unassigned) [Example 42], 1000 to 20000 nM.
For `COc1cc(-c2nsc([C@H](C)NC(=O)c3cc(C(F)(F)F)nn3C)n2)ccn1` [Example 44, 2-methyl-N-[(1S)-1-[3-(2-methoxy-4-pyridyl)-1,2,4-thiadiazol-5-yl]ethyl]-5-(trifluoromethyl)pyrazole-3-carboxamide] the value was not above 1000 nM.
Then `Cc1cc(-c2nsc([C@H](C)NC(=O)c3cc(C(F)(F)F)nn3C)n2)ccn1` [Example 40, 2-methyl-N-[(1S)-1-[3-(2-methyl-4-pyridyl)-1,2,4-thiadiazol-5-yl]ethyl]-5-(trifluoromethyl)pyrazole-3-carboxamide], with 1000 to 20000 nM; and `C[C@@H](NC(=O)c1cc(C(F)(F)F)nn1C)c1nc(N2CCCCC2)ns1` [Example 47, 2-methyl-N-[(1R)-1-[3-(1-piperidyl)-1,2,4-thiadiazol-5-yl]ethyl]-5-(trifluoromethyl)pyrazole-3-carboxamide], with 1000 to 20000 nM.
With `C[C@H](NC(=O)c1cc(C(F)(F)F)nn1C)c1nc(N2CCCCC2)ns1` [Example 46, 2-methyl-N-[(1S)-1-[3-(1-piperidyl)-1,2,4-thiadiazol-5-yl]ethyl]-5-(trifluoromethyl)pyrazole-3-carboxamide], the IC50 lay in the range of 1000 to 20000 nM.
`C[C@@H](NC(=O)Cc1ccccc1)c1cc(-c2ccnc(C(F)(F)F)c2)no1` (single isomer, unassigned) [Example 28] gave a 50% inhibitory concentration (IC50) not below 20000 nM.
`C[C@@H](NC(=O)N1CCOc2ccccc21)c1cc(-c2ccnc(C(F)(F)F)c2)no1` (single isomer, unassigned) [Example 39] had a half-inhibitory concentration (IC50) not above 1000 nM.
The compound `C[C@@H](NC(=O)c1ccnn1C1CCC1)c1cc(-c2ccnc(C(F)(F)F)c2)no1` (single isomer, unassigned) [Example 36] returned a half-inhibitory concentration (IC50) not above 1000 nM.
In the case of `C[C@H](NC(=O)C1CCCCC1)c1cc(-c2ccnc(C(F)(F)F)c2)no1` (single isomer, unassigned) [Example 27], the IC50 lay within 1000 to 20000 nM.
For `C[C@H](NC(=O)c1cccc(C(F)(F)F)c1)c1cc(-c2ccnc(C(F)(F)F)c2)no1` (single isomer, unassigned) [Example 32] the value was not above 1000 nM; for `C[C@H](NC(=O)N1CCCCC1)c1cc(-c2ccnc(C(F)(F)F)c2)no1` (single isomer, unassigned) [Example 8], not below 20000 nM; for `C[C@@H](NC(=O)c1cccc(Cl)c1)c1cc(-c2ccnc(C3CC3)c2)no1` (single isomer, unassigned) [Example 19], not above 1000 nM.
The compound `C[C@H](NC(=O)c1ccccc1)c1cc(-c2ccnc(C3CC3)c2)no1` (single isomer, unassigned) [Example 14] displayed an IC50 not above 1000 nM.
Then `C[C@@H](NC(=O)c1ccccc1)c1cc(-c2ccnc(C3CC3)c2)no1` (single isomer, unassigned) [Example 15], with 1000 to 20000 nM; and `CC(NC(=O)c1cc(C(F)(F)F)nn1C)c1nc(-c2ccnc(C(F)(F)F)c2)ns1` (stereo not drawn) [Example 1, 1-methyl-3-(trifluoromethyl)-N-(1-(3-(2-(trifluoromethyl)pyridin-4-yl)-1,2,4-thiadiazol-5-yl)ethyl)-1H-pyrazole-5-carboxamide], with not above 1000 nM; and `C[C@H](NC(=O)N1CCCc2ccccc21)c1cc(-c2ccnc(C(F)(F)F)c2)no1` (single isomer, unassigned) [Example 34], with 1000 to 20000 nM.
Regarding `COCc1cc(-c2nsc([C@@H](C)NC(=O)c3cc(C(F)(F)F)nn3C)n2)ccn1` (single isomer, unassigned) [Example 43], the IC50 was 1000 to 20000 nM.
The compound `C[C@H](NC(=O)c1cc(C(F)F)nn1C)c1cc(-c2ccnc(C(F)(F)F)c2)no1` (single isomer, unassigned) [Example 31] gave an IC50 not above 1000 nM.
`C[C@H](NC(=O)c1cc(C(F)(F)F)nn1C)c1cc(-c2ccnc(C3CC3)c2)no1` (single isomer, unassigned) [Example 17] yielded an IC50 of 1000 to 20000 nM.
Compound `C[C@H](NC(=O)Cc1ccccc1)c1cc(-c2ccnc(C(F)(F)F)c2)no1` (single isomer, unassigned) [Example 29] displayed an IC50 of 1000 to 20000 nM.
Then `COc1cc(-c2nsc([C@@H](C)NC(=O)c3cc(C(F)(F)F)nn3C)n2)ccn1` [Example 45, 2-methyl-N-[(1R)-1-[3-(2-methoxy-4-pyridyl)-1,2,4-thiadiazol-5-yl]ethyl]-5-(trifluoromethyl)pyrazole-3-carboxamide], with not above 1000 nM.
`C[C@@H](NC(=O)c1cc(C(F)(F)F)nn1C)c1cc(-c2ccnc(C3CC3)c2)no1` (single isomer, unassigned) [Example 16] gave a 50% inhibitory concentration (IC50) not above 1000 nM.
